{"source": "patent US5942494A", "about": "“Stimulation of gene expression and synthesis of heat shock protein 72/73 (HSP 70)” (The Trustees of Columbia University in the City of New York, priority 1996, dated 1999)", "key": {"Hsp70": {"tested_on": "Hsp70", "assay": "Hsp70 levels by denaturing immunoprecipitation of [3H]-leucine radiolabeled HepG2 cells", "format": "cell-based, human", "conditions": "HepG2, 4 hours; MG132 10 μM or 30 μM; lactacystin 10 μM; 30 min radiolabeling", "method": "The HepG2 cell culture conditions were maintained as previously described (Dixon, et al., 1991). The cells were seeded into collagen-pre-coated dishes or six-well tissue culture plates and grown in complete medium containing minimum essential medium (MEM) with 0.1 mM nonessential amino acids, 1.0 mM sodium pyruvate, penicillin/streptomycin, and 10% fetal bovine serum. Cells were fed fresh complete medium every 3 days and maintained in a 5% CO2 incubator. All experiments were performed by using exponentially growing cells at 90-95% confluency. For heat shock treatment, the dishes were sealed with Parafilm and immersed in a water bath at 42° C. for indicated durations of time. Cells were incubated with ALLN alone at indicated concentrations or combined with other chemicals at 37° C. Cells were also incubated with different protease inhibitors alone at indicated concentrations or combined with other chemicals at 37° C.\n(§1) HepG2 cells were preincubated for 4 hours in serum-free MEM and then radiolabeled with ^3 H-Leucine (150 μCi/ml) in a serum-free, leucine-free medium. Preincubation and labeling media each contained either 1.5% bovine serum albumin (BSA) alone, or BSA plus ALLN (40 μg/ml except as otherwise indicated), or BSA plus other protease inhibitors at concentrations indicated in the figure legends. At the indicated times, cells were removed from the 37° C. incubator and placed on ice, washed with cold phosphate-buffer saline (PBS) twice and lysed with lysis buffer containing 1% Triton X-100 (TX100), 1% deoxycholic acid (DOC) and 0.1% SDS in PBS containing proteinase inhibitors: 2 mM phenylmethylsulfonyl fluoride (PMSF); 2 μg/ml ALLN; 2 μg/ml leupeptin; and 2 μg/ml aprotinin. After a 30 min. incubation with lysis buffer at 4° C., the lysates were centrifuged at 14,000 g in a microcentrifuge for 5 min., and the supernatants were adjusted to 1% SDS concentration and boiled for 5 min. to denature the proteins. 1% TX100 was then added to dilute the lysates to a final concentration of 0.1% SDS. Cell lysates containing equal amounts of trichloroacetic acid (TCA)-insoluble radioactivity were used for immunoprecipitations by incubating with individual monoclonal antibody (1 μg/ml) for 2.5 hours at 4° C. Protein-A Sepharose 4B was added afterwards and the lysates incubated for another 1.5 hours at 4° C. to collect the immunocomplexes. After washing four times with 1×NET buffer (containing 0.5% TX100, 0.1% SDS), the immunocomplexes were mixed with sample buffer and boiled for 5 min. Following centrifugation, the supernatants were aliquoted for scintillation counting and for 3-15% gradient polyacrymide gel electrophoresis (SDS-PAGE) . The gels were later subjected to fluorography. All values are presented as the mean ± S.D. from three individual experiments except as otherwise indicated.\nDenaturing immunoprecipitation was chosen because Hsp70 is a major cytosolic chaperone protein and it is co-immunoprecipitated with a number of other proteins under non-denaturingconditions (Beckmann, et al., 1990; Zhou, et al., 1995)."}, "HepG2 cells": {"tested_on": "HepG2 cells", "assay": "Total incorporation of radiolabel (TCA cpm) as indicator of cell toxicity, HepG2", "format": "cell-based, human", "conditions": "HepG2, 4 hours; MG132 10 or 30 μM; lactacystin 10 μM", "method": "as §1"}, "[1]": {"tested_on": "cysteine protease, serine protease, trypsin or chymotrypsin", "conditions": "even upon extended exposure, Ward, et al., 1995, Fenteany; cited from earlier work"}}}
{"smiles": "CC(=O)N[C@@H](CSC(=O)[C@]1([C@@H](O)C(C)C)NC(=O)[C@H](C)[C@@H]1O)C(=O)O", "note": "[lactacystin]", "values": [{"measurement": "Induction of Hsp70 levels by proteasome inhibitors", "setting": "Hsp70", "result": "induced Hsp70 levels dramatically"}, {"measurement": "Toxicity to the cells (TCA-precipitable radioactivities)", "setting": "HepG2 cells", "result": "without obvious toxicity"}, {"measurement": "Effect on cysteine protease, serine protease, trypsin or chymotrypsin", "setting": "[1]", "result": "no detectable effect"}]}
